Experimental data from US20080096909A1, “APOMORPHINE INHIBITORS OF AMYLOID-BETA (ABETA) FIBRIL FORMATION AND THEIR USE IN AMYLOIDOSIS BASED DISEASE” (priority 2001, published 2008).
Where “and” joins values, the source holds several entries; their conditions need not be identical. Equal values may be shown once. Entries after “also recorded” stand apart in the source; their conditions may differ.

Legend:
Aβ 1-40 [1] = target: T1, Aβ 1-40 (Homo sapiens, UniProt P05067); assay: Thioflavin T (ThT) fluorescence assay for fibril formation; assay type: biochemical; set-up: Amyloid-β (Aβ 1-40) was purchased from California Peptides (Lot # SF104); purchased California Peptides Lot # SF104
Description: Preparation of Stock Peptide Solutions for Fibrillization Studies. Stock solutions of the inhibitors were prepared by dissolving the compounds at a concentration of 5-7 mM in water or in 1-1.5% DMSO solutions (for compounds with reduced solubility). Amyloid-β (Aβ 1-40) was purchased from California Peptides (Lot # SF104). Aβ 1-40 stock solutions were prepared by dissolving purified and lyophilized peptide in cold double distilled water to yield stock solutions at a concentration of 2 mg/mL. The stock solutions were used within 10-30 minutes of dissolution. Samples for fibril formation assay were prepared by diluting the appropriate amount of Aβ stock with pH 7.4 Tris-HCl buffer (50 mM Tris, 150 mM NaCl) to afford a final peptide concentration of 100 μM. […] Analytical ultracentrifugation, and electron microscopy were periodically used to ensure that we start our experiments with a hydrodynamically defined Aβ monomer, and the absence of any preformed fibrils in solution.
Thioflavin T (ThT) Fluorescence Assay for Fibril Formation. Thioflavin T was purchased from Aldrich (70% purity) and was recrystallized from benzene/ethanol (1:1) to afford yellow crystals (36). Thioflavin T binding assays were performed by addition of 50 μL of 100 μM Aβ solutions, which were incubated at 37° C. in the absence and presence of inhibitors, to 450 μL solution of 10 μM Thioflavin T in phosphate buffer (10 mM phosphate, 100 mM KCl). The solutions were mixed and fluorescence measurements were recorded in Biosystems model spectrofluorimeter at 25° C. using a 1 cm path length quartz cell. An excitation slit width of 4 nm and an emission slit width of 8 nm were employed. The excitation wavelength was set to 450 nm and emission monitored from 460-630 nm. The relative fluorescence at 482 nm was plotted for each sample, and was used as a measure of the amount of fibrillar aggregates in solution.

Aβ 1-40 [2] = target: T1, Aβ 1-40; assay: Sedimentation velocity of Aβ quaternary structures in the presence of inhibitors; assay type: biochemical; set-up: Amyloid-β (Aβ 1-40) was purchased from California Peptides (Lot # SF104); purchased California Peptides Lot # SF104; details: for Average sedimentation coefficients of two populations of oligomeric species: apomorphine 50 μM
Description: Probing the Mechanism of Amyloid Fibril Formation Inhibition using Sedimentation Velocity Experiments. To probe the mechanism by which apomorphine and its structural analogues inhibit Aβ fibril formation, sedimentation velocity was used to determine the distribution and molecular size of quaternary structures of Aβ in the presence and absence of inhibitors. Aβ samples (100 μM) in a pH 7.4 buffer (50 mM Tris-HCl, 150 mM NaCl) were incubated at 37° C. for 1-10 days in the presence and absence of inhibitors, then transferred to 25° C. for 1-3 hours before the sedimentation experiments were carried out at 20° C. The sedimentation properties of Aβ 1-40 in the absence and presence of inhibitors were obtained from data collected on a temperature controlled Beckman XL-1 using 400-420 μL of peptide solutions and data were recorded at rotor speeds of 3,000-30,000 rpm in continuous mode with a step size of 0.005 cm. The sedimentation velocity absorbance profiles were then analyzed using the time derivative (dc/dt) analysis program, which was provided by J. Philo, to obtain the sedimentation coefficient distribution g(*s) for all the quaternary structures in solution as described previously (37, 38).
Fitting of the g(*s) profiles allows for the determination of the sedimentation coefficient (peak position, with a unit of Svedberg, 1 S=10^−13 s) and the diffusion coefficient (from the peak width, with a unit of Fick, 1 F=[…]). This method has the advantage of allowing for the calculation of the molecular weight of the sedimenting species using equation II since s and D can be obtained from the fitting analysis. [formula]
In the cases where the diffusion coefficient cannot be determined accurately, the molecular weight of a spherical protein can still be estimated by combining the Svedberg equation and Stokes equation for the frictional coefficient to obtain equation III which utilizes the estimated sedimentation coefficient: [formula]
Sedimentation velocity was also used to determine the amount of soluble Aβ and Aβ monomer in solution after sedimentation of Aβ aggregates. […] The percent of monomeric species in solution was calculated using equation IV at 50,000 rpm and after complete sedimentation of Aβ high MW oligomeric species. Sedimentation equilibrium studies of the unsedimented species were carried out to determine whether a monomer, dimer or a mixture was present in solution. % of unsedimented Aβ=1−(Absorbance(290 nm, 3000 rpm)−Absorbance(290 nm, 20,000-30,000 rpm))×100 (IV)

monomeric Aβ = target: T2, monomeric Aβ (Homo sapiens, UniProt P05067); assay: Sedimentation equilibrium of unsedimented monomeric species, monitored at 330 nm; assay type: binding
T2 construct: Amyloid-β (Aβ 1-40) was purchased from California Peptides (Lot # SF104); purchased California Peptides Lot # SF104
Description: Sedimentation equilibrium runs were performed on AD (100 μM) samples in the absence and presence of inhibitors (150 μL) at pH 7.4 at a rotor speed of 3,000-20,000 rpm using a double sector cell with charcoal-filled epon centerpieces and sapphire windows. All scans were performed at 280 nm or at 330 nm (for solutions containing apomorphine or apomorphine analogues) with a step size of 0.001 cm and 25 averaged scans. Samples were allowed to equilibrate for 24-30 h, and duplicate scans 3 h apart were overlaid to determine that equilibrium had been reached. The data were analyzed by a nonlinear least squares analysis using the Origin software provided by Beckman.
Analytical ultracentrifugation methods were also employed to probe the mechanism of interaction of these molecules with Aβ. […] To investigate whether apomorphine binds to monomeric Aβ, we carried out a sedimentation equilibrium experiment on the remaining monomeric species by monitoring at 330 nm, where apomorphine is the sole contributor to the absorbance at this wavelength.

Aβ 1-40 [3] = target: T1, Aβ 1-40; assay: Electron microscopy of Aβ aggregates in the presence of inhibitor; assay type: biochemical; set-up: Amyloid-β (Aβ 1-40) was purchased from California Peptides (Lot # SF104); purchased California Peptides Lot # SF104
Description: Electron Microscopy. Electron microscopy was used to follow the changes in size and structural morphology of Aβ aggregates in the presence and absence of inhibitor at 37° C. as a function of time. EM samples were prepared by placing 5 μL of the Aβ solution on a carbon-coated grid and allowing the solution to stand for 2 min before removing excess solution. The grid was then washed once with distilled water and once with 1% uranyl acetate before staining the sample with fresh 1% uranyl acetate for another 2 min. The samples were then studied in a Phillips CM-100 electron microscope. The grids were thoroughly examined to get an overall statistical evaluation of the structures present in the sample. All electron micrographs were taken at 100 kV.

Aβ 1-40 [4] = target: T1, Aβ 1-40; assay: Visible sedimentable aggregates in Aβ 1-40 fibrillization samples; set-up: Amyloid-β (Aβ 1-40) was purchased from California Peptides (Lot # SF104); purchased California Peptides Lot # SF104; details: Aβ 1-40 100 μM, apomorphine 100 μM, 37° C., 1-3 days
Description: Solutions of Aβ 1-40 (50-100 μM) were incubated at 37° C. for 1-3 days in the absence and presence of apomorphine at equimolar concentration.

Aβ 1-40 [5] = target: T1, Aβ 1-40; assay: Congo red binding studies; assay type: biochemical; set-up: Amyloid-β (Aβ 1-40) was purchased from California Peptides (Lot # SF104); purchased California Peptides Lot # SF104; details: Aβ solutions containing apomorphine, 3 days at 37° C.
Description: Congo Red Binding Studies. […] The concentration of the Congo red stock was determined by measuring the absorbance of a diluted aliquot at 477 nm (ε477 nm=34,722 cm^−1M^−1) (35). Buffered Congo red solutions at the desired concentration were prepared by dilution of an aliquot of the stock solution in 50 mM Tris-HCl, 150 mM NaCl (pH 7.4). Binding studies were carried out by diluting 10 μL of a 100 μM Aβ solutions to 90 μL of 10 μM Congo red buffered solution. The resulting solutions were then vortexed and the UV-Vis spectra (300-700 nm) was collected immediately using a Beckman UV/VIS spectrophotometer in a mini cuvette with a 1 cm pathlength.

T1 sequence (P05067 672-711): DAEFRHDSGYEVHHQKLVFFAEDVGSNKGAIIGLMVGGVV
T2 sequence (P05067 672-711): as above

Structure (SMILES): CN1CCc2cccc3c2C1Cc1ccc(O)c(O)c1-3 (single isomer, unassigned; (-)) [apomorphine, (−)-10,11-dihydroxyaporphine]
- Thioflavin T fluorescence at 482 nm (amount of fibrils) (Aβ 1-40 [1]; Aβ 1-40 100 μM incubated with compound, pH 7.4, 37° C., 3 days): did not exhibit this typical fluorescence; also recorded: did not affect the ThT fluorescence spectra; also recorded: signal near background
- Thioflavin T signal after longer incubation (Aβ 1-40 [1]; longer incubation at 37° C., some long fibrils formed): did not exhibit any changes
- Thioflavin T signal with sodium metabisulphite added (Aβ 1-40 [1]; stock solutions containing 1% (v/v) sodium metabisulphite, 37° C., pH 7.4, 3 days): restoration of the ThT signal
- Amount of nonfibrillar assemblies (protofibrils) formed by Aβ alone relative to that obtained in the presence of compound (Aβ 1-40 [2]; 20 hour incubation): ~30%
- Average sedimentation coefficients of two populations of oligomeric species (Aβ 1-40 [2]; Aβ 100 μM): 35 S and 56 S
- Average sedimentation coefficients of two populations of oligomeric species (Aβ 1-40 [2]; Aβ 100 μM, listed as apomorhine): 35 S and 56 S
- Average sedimentation coefficient of Aβ-apomorphine complex(s) (Aβ 1-40 [2]; Aβ 100 μM, apomorphine 100 μM, 3 days, 30,000 rpm): 50 S
- Sedimentation of Aβ 1-40 at 3,000 rpm (fibrils) (Aβ 1-40 [2]; apomorphine at equimolar ratio to Aβ 1-40): no sedimentation of Aβ 1-40 was observed
- Increase in amount of soluble protofibrils (Aβ 1-40 [2]; incubation 17-24 h at 37° C., in the presence of apomorphine): 60%
- Sedimentation coefficient after addition of apomorphine (Aβ 1-40 [2]; incubation 17-24 h at 37° C., Aβ alone 20 S): 30 S
- Molecular weight from single species fit of sedimentation equilibrium (monomeric Aβ; remaining monomeric species, monitored at 330 nm): 4,430 g/mol
- Binding to monomeric Aβ (monomeric Aβ; sedimentation equilibrium at 330 nm): bound to monomeric Aβ
- Species seen by electron microscopy (Aβ 1-40 [3]; Aβ 1-40 100 μM, apomorphine 50 μM): both long unbranched fibrils and short nonfibrillar assemblies were observed
- Nonfibrillar assemblies as share of species in solution (Aβ 1-40 [3]; Aβ 1-40 100 μM, apomorphine 50 μM, 3-6 days at 37° C.): 70-85%
- Species seen by electron microscopy (Aβ 1-40 [3]; Aβ 1-40 100 μM, apomorphine 100 μM): accumulation of predominantly soluble, nonfibrillar assemblies
- Species by sedimentation velocity and EM (Aβ 1-40 [3]; Aβ 1-40 100 μM, apomorphine 200 μM, 37° C., 2-6 days): stabilization of soluble oligomeric species
- Fibril formation at apomorphine concentrations below 50 μM (Aβ 1-40 [3]; Aβ 1-40 100 μM, apomorphine <50 μM, 3-9 days at 37° C.): significant fibrils were formed; also recorded: not effective as an inhibitor
- Protofibril assembly into fibrils when compound is added to pre-incubated Aβ (EM and sedimentation velocity) (Aβ 1-40 [3]; Aβ pre-incubated 18-20 hr at 37° C., then three to nine days with compound): exhibited similar behavior
- Inhibition of Aβ fibril formation by EM, aged or freshly prepared stock solutions (Aβ 1-40 [3]; three to four days at 37° C.): effective inhibition of Aβ fibril formation
- Visible sedimentable aggregates (Aβ 1-40 [4]): did not show any visible sedimentable aggregates
- Congo red maximal absorbance and red-shifted maximum (Aβ 1-40 [5]): no increase in the maximal absorbance and red-shifted maximum
